Measured values reported in patent publication US6642398B2, “Mono-and disubstituted 3-propyl gamma-aminobutyric acids” (Warner-Lambert Company, priority 1999, dated 2003).
Counter-ions that a name gives are not always drawn. Like-named read-outs stand apart in the source and are kept apart here.

What was measured:
DBA/2 mice = experiment: Anticonvulsant % Protect (DBA2 mouse model of anticonvulsant efficacy); format: in vivo; settings: for responders at 30 mg/kg: Mus musculus
Protocol: All procedures were carried out in compliance with the NIH Guide for the Care and Use of Laboratory Animals under a protocol approved by the Parke-Davis Animal Use Committee. Male DBA/2 mice, 3 to 4 weeks old were obtained from Jackson Laboratories, Bar Harbour, Me. Immediately before anticonvulsant testing, mice were placed upon a wire mesh, 4 inches square, suspended from a steel rod. The square was slowly inverted through 180° and mice observed for 30 seconds. Any mouse falling from the wire mesh was scored as ataxic (Coughenour L. L., McLean J. R., Parker R. B., “A new device for the rapid measurement of impaired motor function in mice,” Pharm. Biochem. Behav., 1977;6(3):351-3). Mice were placed into an enclosed acrylic plastic chamber (21 cm height, approximately 30 cm diameter) with a high-frequency speaker (4 cm diameter) in the center of the top lid. An audio signal generator (Protek model B-810) was used to produce a continuous sinusoidal tone that was swept linearly in frequency between 8 kHz and 16 kHz once each 10 msec. The average sound pressure level (SPL) during stimulation was approximately 100 dB at the floor of the chamber. Mice were placed within the chamber and allowed to acclimatize for one minute. DBA/2 mice in the vehicle-treated group responded to the sound stimulus (applied until tonic extension occurred, or for a maximum of 60 sec) with a characteristic seizure sequence consisting of wild running followed by clonic seizures, and later by tonic extension, and finally by respiratory arrest and death in 80% or more of the mice. In vehicle-treated mice, the entire sequence of seizures to respiratory arrest lasts approximately 15 to 20 seconds. The incidence of all the seizure phases in the drug-treated and vehicle-treated mice was recorded, and the occurrence of tonic seizures were used for calculating anticonvulsant ED50 values by probit analysis (Litchfield J. T., Wilcoxon F. “A simplified method for evaluating dose-effect experiments,” J. Pharmacol., 1949;96:99-113). Mice were used only once for testing at each dose point. Groups of DBA/2 mice (n=5-10 per dose) were tested for sound-induced seizure responses 2 hours (previously determined time of peak effect) after given drug orally. All drugs in the present study were dissolved in distilled water and given by oral gavage in a volume of 10 mL/kg of body weight. Compounds that are insoluble will be suspended in 1% carboxymethocellulose. Doses are expressed as weight of the active drug moiety.

[1] = 30 mg/kg PO, 1 h, read-out: Anticonvulsant % Protect 1 h
[2] = 30 mg/kg PO, 2 h, read-out: Anticonvulsant % Protect 2 h

| Structure (SMILES) | responders at 30 mg/kg (DBA/2 mice; [1]) [%] | responders at 30 mg/kg (DBA/2 mice; [2]) [%] | further results |
| --- | --- | --- | --- |
| CC[C@@H](C)C[C@H](CN)CC(=O)O [(3S,5R)-3-Aminomethyl-5-methyl-heptanoic acid] | 80 | – | – |
| CC[C@H](C)C[C@H](CN)CC(=O)O [(3S,5S)-3-Aminomethyl-5-methyl-heptanoic acid] | 0 | 0 | – |
| CC(C)C[C@H](CN)CC(=O)O [Pregabalin, (S)-3-(Aminomethyl)-5-methylhexanoic acid, reference compound] | – | – | Anticonvulsant % Protect 2 h (DBA/2 mice; 30 mg/kg PO, 2 h): 100% |
| CC(C)[C@H](C)[C@H](CN)CC(=O)O [(3R,4S)-3-Aminomethyl-4,5-dimethyl-hexanoic acid] | 20 | 0 | – |
| CCCC(C(C)C)C(CN)CC(=O)O (stereo not drawn) (as salt: HCl) [3-aminomethyl-4-isopropyl-heptanoic acid, 3-Aminomethyl-4-isopropyl-heptanoic acid] | – | – | melting point: 160 to 170 °C |
| CC(C)[C@@H](C)[C@@H](CN)CC(=O)O [(3S,4R)3-Aminomethyl 4,5-dimethyl-hexanoic acid] | 20 | 20 | – |
| CCC(CC)CC(CN)CC(=O)O (stereo not drawn) | – | – | Anticonvulsant % Protect 2 hr (DBA/2 mice; Table 1, 2 hr): 20% |
| CC(C)[C@@H](C)[C@H](CN)CC(=O)O [(3R,4R)-3-Aminomethyl-4,5-dimethyl-hexanoic acid] | 100 | 100 | – |
